Measurements from patent US5298652A, “N-substituted glycines, inhibitors of phospholipase A2” (Hoffmann-La Roche Inc., priority 1992, dated 1994).

Columns and labels:
[1] = target: T1, HSF-PLA2 (extracellular PLA2 obtained from human synovial fluid) (Homo sapiens, UniProt P14555); experiment: Assay for inhibition of HSF-PLA2 in vitro; assay type: biochemical; settings: read-out: % Inhib of HSF-PLA2; for inhibition at 5 µM: 5 μM test compound; for inhibition at 1 µM: 1 μM test compound
T1 construct: extracellular enzyme obtained from human synovial fluid; from tissue; host or cells: human synovial fluid (pooled)
T1 sequence (P14555 21-144): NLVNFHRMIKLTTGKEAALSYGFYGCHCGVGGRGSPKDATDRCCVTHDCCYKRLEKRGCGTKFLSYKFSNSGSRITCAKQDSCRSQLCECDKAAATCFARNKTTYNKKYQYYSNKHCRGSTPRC
Description: Assay for Inhibition of HSF-PLA2 In Vitro
The PLA2 used in this test is the extracellular enzyme obtained from human synovial fluid (HSF-PLA2).
The assay for HSF-PLA2 activity was a modification of the described method [Franson R., Dobrow R., Weiss, J., Elsbach P., and Weglick W. B., J. Lipid Res., 19, 18-23 (1978)] which was conducted using [1-^14 C]-oleate-labelled E. coli substrate in excess at a final concentration of 20,000 dpm/ml. This was equivalent to 18.2 mM of cell membrane phospholipid phosphorus and 2×10^9 autoclaved E. coli/ml. The optimal conditions which were developed for the assay of HSF-PLA2 inhibitors are summarized as follows. A total volume of 0.5 ml of reaction mixture typically had the following final composition: substrate (20,000 dpm/ml); enzyme (0.1% HSF, v/v); 2 mM CaCl2; 150 mM Na^+; 50 mM sodium HEPES buffer, pH 7.3; and 1% dimethyl sulfoxide (DMSO, used to solubilize test inhibitors) in the presence or absence of inhibitor. The reaction was initiated by the addition of HSF-PLA2 and duplicate samples of the mixture were incubated in 13×100 mm glass tubes with shaking for 30 minutes at 37° C. The reaction was terminated by the addition of 2.5 ml of chloroform-methanol (1 to 1.5, v/v). The extraction of lipids from the stopped reaction mixture was conducted by the further additions of 0.5 ml of chloroform and 1 ml of water with mixing. After centrifuging, the lower chloroform phase was transferred to smaller glass tubes and the solvent was evaporated to dryness with a nitrogen stream. The extracted lipid residue was redissolved in […] of a solution containing carrier oleic acid (0.2 mg/ml) in chloroform-methanol [9 to 1, v/v]). The whole lipid extract was applied to a preactivated (30 minutes at 110° C.) silica gel-impregnated glass fiber thin layer chromatography sheet (ITLC type SG sheet from Gelman Sciences Inc., Ann Arbor, Mich.) using hexane-acetic acid (100 to 1, v/v) as the developing solvent. This TLC system rapidly (6 minutes) resolved the enzymatically released product, ^14 C-oleic acid, from the unreacted ^14 C-phospholipid substrate. The unsaturated lipids were located on the chromatogram by a brief exposure to iodine vapor. The oleic acid zone (Rf value 0.95) and phospholipid zone (origin) were cut out, chopped into small pieces, shaken with 2 ml of ethanol-water (80 to 20, v/v) and 15 ml of Aquasol and counted for radio-activity. A control incubation of substrate in the absence of HSF-PLA2 was performed in each experiment. The PLA2 activity of the human synovial fluid was corrected for this small control value. […] The specific activity of PLA2 in the pooled human synovial fluid under the optimal assay conditions was 49.2 nmoles [1-^14 C]-oleic aid released hour^-1 mg^-1. The IC50 (μM concentration of test compound that produces 50% inhibition of PLA2 activity) was determined for each test compound.

[2] = tested on: croton oil-induced mouse ear edema; experiment: Croton oil mouse ear edema test; assay type: in vivo, male CD-1 mice; settings: 1 mg topical, coapplied with croton oil; ear punch weight at 6 hours
Description: Croton Oil Mouse Ear Edema Test
The croton oil-induced mouse ear edema test, a model of irritant-induced contact dermatitis, has been used for evaluation of the PLA2 inhibitors by the topical route of administration. This test was carried out as described in the following references: […]
Twenty five μl of a 1% croton oil solution [dissolved in a mixture of pyridine/water/diethyl ether at a ratio of 5/20/75 (croton oil vehicle)] are applied to the outer side of the right ear of 3-4 week old male CD-1 mice (8 animals per group). The test compounds are dissolved directly in the 1% croton oil solution at various concentrations and coapplied. Control animals receive 25 μl of croton oil vehicle on the right ear. Biopsy punches are removed at 6 hours from the right ear of the animals using a 6 mm skin trephine (Roboz, Washington, D.C.) and the wet weight of the ear punches is determined. The weight of the biopsy punches is a measure of ear inflammation, primarily edema. The data are expressed as percent inhibition relative to control groups.
Statistical analysis of the mean edema values of the control versus the treated groups is performed using Student's t-test. The significance of changes from mean value for vehicle-treated animals is as follows (*p<0.05, **p<0.01, ***p<0.005, ns/not significant).

| SMILES | inhibition at 5 µM [1] [%] | inhibition at 1 µM [1] [%] | % Inhib of Croton Oil Mouse Ear Edema (1 mg) [2] [%] |
| --- | --- | --- | --- |
| CCCCCCCCCCCCCCOc1cccc(C(=O)N(CC(=O)O)CC(=O)O)c1 [Example 5, N-(Carboxymethyl)-N-[3-(tetradecyloxy)benzoyl]glycine] | 13 |  |  |
| CCCCCCCCCCOc1cccc(C(=O)N(CC(=O)O)CC(=O)O)c1 [Example 6, N-(Carboxymethyl)-N-[3-(decyloxy)benzoyl]glycine] | 8 |  | 47 |
| CCCCCCCCCCCCCCCCCC(=O)Nc1cccc(C(=O)N(CC(=O)O)CC(=O)O)c1 [Example 9, N-(carboxymethyl)-N-[3-(1-oxooctadecylamino)benzoyl]glycine] | 8 |  | 20 |
| CCCCCCCCCCCCCCCCCCOc1cc(OCCCOc2cccc([N+](=O)[O-])c2)cc(C(=O)N(CC(=O)O)CC(=O)O)c1 [Example 22, N-(Carboxymethyl)-N-[3-[3-(3-nitrophenoxy)propoxy]-5-(octadecyloxy)benzoyl]glycine] | 60 |  | 54 |
| CCCCCCCCCCCCCCCCCCOc1cc(OCCCOc2cccc(N)c2)cc(C(=O)N(CC(=O)O)CC(=O)O)c1 [Example 23, N-(Carboxymethyl)-N-[3-[3-(3-aminophenoxy)propoxy]-5-(octadecyloxy)benzoyl]glycine] | 50 |  | 21 |
| CCCCCCCCCCCCCCCCCCOc1cc(OCCOc2ccc3ccccc3c2)cc(C(=O)N(CC(=O)O)CC(=O)O)c1 [Example 25] | -16 |  | 44 |
| CCCCCCCCCCCCCCCCCCOc1cc(C(=O)O)cc(C(=O)N(CC(=O)O)CC(=O)O)c1 [Example 30, N-(Carboxymethyl)-N-[3-carboxy-5-(octadecyloxy)benzoyl]glycine] | 23 |  |  |
| CCCCCCCCCCCCCCCCCCOc1cc(C(=O)N(CC(=O)O)CC(=O)O)cc([N+](=O)[O-])c1 [Example 43, N-(carboxymethyl)-N-[3-nitro-5-(octadecyloxy)benzoyl]glycine] | 10 |  | 48 |
| CCCCCCCCCCCCCCCCCCOc1cccc(C(=O)C(=O)N(CC(=O)O)CC(=O)O)c1 [Example 69, N-(Carboxymethyl)-N-[2-[3-(octadecyloxy)phenyl]-1,2-dioxoethyl]glycine] | 57 |  | 28 |
| CCCCCCCCCCCCCCCCCCOc1cccc(C(=O)NCC(=O)O)c1 [Example 74, N-[3-(Octadecyloxy)benzoyl]glycine] | 23 |  | 33 |
| CCCCCCCCCCCCCCCCCCOc1cccc(CC(=O)N(CC(=O)O)CC(=O)O)c1 [Example 76, N-(Carboxymethyl)-N-[3-(octadecyloxy)phenylacetyl]glycine] | 45 |  | 38 |
| CCCCCCCCCCCCCCCCCCOc1cccc(/C=C/C(=O)N(CC(=O)O)CC(=O)O)c1 [Example 78, (E)-N-(carboxymethyl)-N-[3-[(3-octadecyloxy)phenyl]-1-oxo-2-propenyl]glycine] | 68 |  | 48 |
| CCCCCCCCCCCCCCCCCCOc1cccc(CCC(=O)N(CC(=O)O)CC(=O)O)c1 [Example 79, N-(Carboxymethyl)-N-[3-[(3-octadecyloxy)phenyl]-1-oxopropyl]glycine] | 70 |  |  |

More lines, main results first:

| inhibition at 5 µM [1] [%] | inhibition at 1 µM [1] [%] | SMILES | % Inhib of Croton Oil Mouse Ear Edema (1 mg) [2] [%] |
| --- | --- | --- | --- |
|  | 27 | CCCCCCCCCCCCCCOc1cc(OCCCCCCCCCCCCCC)cc(C(=O)N(CC(=O)O)CC(=O)O)c1 [Example 13, N-(Carboxymethyl)-N-[3,5-bis(tetradecyloxy)benzoyl]glycine] | 60 |
| 72 |  | CCCCCCCCCCCCCCCCCCOc1cc(OCCCOc2ccccc2)cc(C(=O)N(CC(=O)O)CC(=O)O)c1 [Example 18, N-(Carboxymethyl)-N-[3-[3-(phenoxy)propoxy]-5-(octadecyloxy)benzoyl]glycine] | 59 |
|  | 18 | CCCCCCCCCCCCCCCCCCOc1cc(OCCCOc2ccc(OC)cc2)cc(C(=O)N(CC(=O)O)CC(=O)O)c1 [Example 20, N-(carboxymethyl)-N-[3-[3-(4-methoxyphenoxy)propoxy]-5-(octadecyloxy)benzoyl]glycine] |  |
|  | 29 | CCCCCCCCCCCCCCCCCCOc1cc(OCC(=O)O)cc(C(=O)N(CC(=O)O)CC(=O)O)c1 [Example 33, N-(Carboxymethyl)-N-[3-(carboxymethoxy)-5-(octadecyloxy)benzoyl]glycine] | 71 |
| 5 |  | O=C(O)CCCCCCCCCCOc1cc(OCCCCCCCCCCC(=O)O)cc(C(=O)N(CC(=O)O)CC(=O)O)c1 [Example 35, N-(carboxymethyl)-N-[3,5-bis[(10-carboxydecyl)oxy]benzoyl]glycine] | 50 |
| 55 |  | CCCCCCCCCCCCCCCCCCOc1cc(OCc2ccccc2)cc(C(=O)N(CC(=O)O)CC(=O)O)c1 [Example 38, N-(Carboxymethyl)-N-[3-(octadecyloxy)-5-(phenylmethoxy)benzoyl]glycine] | 35 |
| 20 |  | CCCCCCCCCCCCCCCCCCOc1cc(O)cc(C(=O)N(CC(=O)O)CC(=O)O)c1 [Example 39, N-(Carboxymethyl)-N-[3-hydroxy-5-(octadecyloxy)benzoyl]glycine] | 47 |
| 34 |  | CCCCCCCCCCCCCCCCCCOc1cc(N)cc(C(=O)N(CC(=O)O)CC(=O)O)c1 [Example 44, N-(Carboxymethyl)-N-[3-amino-5-(octadecyloxy)benzoyl]glycine] | 35 |
| 38 |  | CCCCCCCCCCCCCCOc1ccc(C(=O)N(CC(=O)O)CC(=O)O)cc1OCCCCCCCCCCCCCC [Example 51, N-(Carboxymethyl)-N-[3,4-bis(tetradecyloxy)benzoyl]glycine] |  |
